Read-outs that look alike come from different tables or passages of the source.
Tests used:
[1] = test system: Opioid Growth Factor Receptor (OGFr); experiment: Induction of OGFr mRNA in human PBMCs (GeneChip microarray); assay type: cell-based
Method: (§1) Opioid receptor inducing compounds (ORICs) were dissolved in dimethyl sulfoxide (DMSO, Sigma Chemical Company) at 5 mM concentration. PBMCs were incubated for one hour in X-VIVO 20 medium (Cambrex Bio Science, Walkersville, Md.) at 37° C. in a 5% CO2 incubator prior to incubation with ORIC prepared in DMSO or with DMSO alone (as a control). The amount of DMSO was kept below 0.1% of the total incubation volume.
(§2) PBMCs were incubated for 15, 30, 60, 120 minutes with ORIC 1. […] DMSO-treated control samples were incubated for 1 hour, 2 hours, 5 hours, 9 hours, and 16 hours.
(§3) At the end of the specified incubation time, cells were lysed and total RNA extracted using the Qiagen RNeasy MidiKit (Qiagen, Inc., Valencia, Calif.). RNA was quantified using absorbance at 260. Quality of RNA was determined from the ratio of absorbance measured at OD260 and OD280 and from the ratio of 18S and 28S bands in RNA 6000 Nano Chip gels run on the Agilent 2100 Bioanalyzer (Agilent Technologies, Inc., Palo Alto, Calif.).
RNA was reverse transcribed to cDNA using a Superscript cDNA synthesis kit (Invitrogen Corporation, Carlsbad, Calif.) using an HPLC-purified T7-(dT)24 primer (Genset SA, Paris, France). Labeled cRNA was prepared from double-stranded cDNA by in vitro transcription using an Enzo BioArray High Yield RNA Transcript Labeling Kit in the presence of biotin-11-CTP and biotin-16-UTP (Enzo Diagnostics, Inc., Farmingdale, N.Y.), and purified using an RNeasy MiniKit (Qiagen, Inc.). 10 or 15 μg of biotinylated cRNA were fragmented and hybridized to HG-U95A or U133A GeneChip® arrays (Affymetrix, Santa Clara, Calif.) containing probe sets representing 12,000 genes (HG-U95A) or 22,000 genes (U133A). Chips were hybridized, washed, and stained according to the Affymetrix protocols.
(§4) Images were scanned using the Agilent Gene Array Scanner (Agilent Technologies, Inc., Palo Alto, Calif.), and processed using Affymetrix Microarray Suite (MS 4.0 or MS 5.0) software. The total fluorescence intensity of each image was scaled to 500 to enable comparison of different images. The image at each time point was analyzed relative to the appropriate control in order to calculate changes in expression for each gene. Changes in gene expression were deemed significant if the p value for detection and change in expression were <0.05.

[2] = test system: melanoma cell line B16-F10; experiment: B16-F10 melanoma lung tumor model in C57/BL6 mice; assay type: in vivo; conditions: B16-F10 i.v.
Method: C57/BL6 mice are injected on Day 0 intravenously with melanoma cell line B16-F10 (5×10^5). On day 5 and lasting through day 19, mice are injected intraperitoneally every other day with either (a) PBS (control), (b) 10 mg/kg of ORIC2, (c) 10 mg/kg [Met^5]-enkephalin, or (d) both.
On Day 20, half the mice are sacrificed and the lungs are removed and weighed. Percent inhibition of lung tumor growth is determined according to the formula:
Placebo weight−Treatment weight×100 Placebo weight

[3] = test system: μ-opioid receptor; experiment: Induction of μ-opioid receptor mRNA in human PBMCs (GeneChip microarray); assay type: cell-based
Method: as §1, §2, §3
RNA was reverse transcribed to cDNA using a Superscript cDNA synthesis kit (Invitrogen Corporation, Carlsbad, Calif.) using an HPLC-purified T7-(dT)24 primer (Genset SA, Paris, France). Labeled cRNA was prepared from double-stranded cDNA by in vitro transcription using an Enzo BioArray High Yield RNA Transcript Labeling Kit in the presence of biotin-11-CTP and biotin-16-UTP (Enzo Diagnostics, Inc., Farmingdale, N.Y.), and purified using an RNeasy MiniKit (Qiagen, Inc.). […]
as §4, with “Changes in gene expression were deemed significant if the p value for detection and change in expression were <0.05.” left out

[4] = test system: lung cancer; experiment: Human subjects with lung cancer, tumor size by CT scan and survival; assay type: in vivo
Method: Human subjects with lung cancer are injected intravenously with a placebo (control), ORIC5 (10 mg/kg), or both ORIC5 (10 mg/kg) and OGF (1 mg/kg) three times a week for eight weeks. Tumor size is measured by CT scan.

[5] = human PBMCs, 5 μM ORIC 1 (FIG. 1), 1 μM ORIC 2, 5 μM ORIC 3, 0.1 μM ORIC 4, (FIG. 2)
[6] = human PBMCs, 1 μM ORIC 2, 5 μM ORIC 3, 0.1 μM ORIC 4, FIG. 3

Row | SMILES | induction of OGFr (mRNA) [1] | induction of OGFr (mRNA) [1, 5] | induction of the μ-opioid receptor (mRNA) [3, 6] | further results
1 | CC(C)Cn1cnc2c(N)nc3ccccc3c21 [ORIC1, 1-(2-methylpropyl)-1H-imidazo[4,5-c]quinolin-4-amine] | induction | – | – | –
2 | CCOCc1nc2c(N)nc3c(c2n1CC(C)(C)O)CCCC3 [ORIC2, 4-amino-2-(ethoxymethyl)-α,α-dimethyl-6,7,8,9-tetrahydro-1H-imidazo[4,5-c]quinoline-1-ethanol] | – | induction | induction | inhibition of tumor growth in the lung ([2]; 10 mg/kg i.p. every other day, day 5 to 19, lungs weighed Day 20, vs placebo): increased inhibition of tumor growth in the lung; survival ([2]; monitored through Day 75, vs placebo): enhanced survival
3 | CCCCc1nc2c(N)nc3ccccc3c2n1CCCCNS(C)(=O)=O [ORIC4, N-[4-(4-amino-2-butyl-1H-imidazo[4,5-c]quinolin-1-yl)butyl]methanesulfonamide] | – | induction | induction | –
4 | Cc1nc2c(N)nc3c(c2n1CCCCNC(=O)N1CCOCC1)CCCC3 [ORIC5, N-[4-(4-amino-2-methyl-6,7,8,9,-tetrahydro-1H-imidazo[4,5-c]quinolin-1-yl)butyl]morpholine-4-carboxamide] | induction | – | – | tumor size by CT scan ([4]; i.v. three times a week for eight weeks, at eight weeks vs prior to treatment): measurably smaller; five-year survival rate ([4]; vs control group): greater; induction of the μ-opioid receptor (mRNA) [3]: induction

From patent US20040214851A1, “Compositions and methods for induction of opioid receptors” (3M Innovative Properties Company, priority 2003, published 2004)
